A value given as a limit tells only on which side of the number the result lay.

One data set deals with CA II (Homo sapiens, UniProt P00918). Briefly: Ki by stopped flow CO2 hydration assay, CA II. It is filed as biochemical. The note with it: rate of CO2 hydration, stopped flow method. As for the experimental part:
(§1) In this experiment, Ki values were determined by measuring the rate of CO2 hydration of the CA spectrophotometrically by a stopped flow method in the presence of varying concentrations of the CA agents.

The target of data set [1] is T1, CA IX (Homo sapiens, UniProt Q16790).
T1 construct: confirming upregulation and expression of CA IX in these cells; endogenous in cells; host or cells: HeLa cells, hypoxic (1% O2) or normoxic
Nature of the data set: Ki by stopped flow CO2 hydration assay, CA IX. The format is biochemical. The note with it: for Ki: rate of CO2 hydration, stopped flow method. Here is the method: as §1

The target of the next data set is CA XII (Homo sapiens, UniProt O43570). Briefly: Ki by stopped flow CO2 hydration assay, CA XII. It is filed as biochemical. The following applies: rate of CO2 hydration, stopped flow method. Here is the method: as §1
The next data set concerns the target CA XIV (Homo sapiens, UniProt Q9ULX7). Briefly: Ki by stopped flow CO2 hydration assay, CA XIV. The note with it: rate of CO2 hydration, stopped flow method. The format is biochemical. Here is the method: as §1
Another data set deals with HeLa tumors. Nature of the data set: Imaging of tumors in vivo using CA agents (planar reflectance and FMT). The following applies: NU/NU mice, bilateral HeLa tumors, 2 nmoles i.v., 24 hrs post-injection. As for the experimental part:
In this experiment, NU/NU mice 6-8 weeks old (Charles River Laboratory, Wilmington, MA) were injected subcutaneously (s.c.) with about 2×10^6 HeLa cells bilaterally in each mammary fat pad. When tumors reached an approximate size of 3×3 mm, mice were injected intravenously (i.v.) with 2 nmoles of carbonic anhydrase agent C5 or nonbinding control agent D3 (5 mice/probe+2 mice/no probe as control) in 100 μL volume via tail vein. Imaging was conducted at 24 hrs post-injection using a Fluorescence Molecular Tomography system (VisEn Medical, Bedford, MA) that is commercially available.

Data set [2] deals with T1, CA IX. Briefly: Carbonic anhydrase dependent binding of CA agents to HeLa cells (fluorescence microscopy, flow cytometry). The format is cell-based. The note with it: for binding to hypoxic HeLa cells, flow cytometry (FIG. 3) / binding to hypoxic and normoxic HeLa cells, fluorescence microscopy (FIG. 2): HeLa cells 24 h in air or 1% O2, agents 1 μM, 30 min; for binding to hypoxic HeLa cells after excess acetazolamide, fluorescence microscopy (FIG. 2) / signal on hypoxic HeLa cells with acetazolamide, flow cytometry (FIG. 3): acetazolamide 100 μM for 2 hour before the agent. Here is the method:
Cell binding assays using HeLa cells cultured under […] were performed. Hela cells (28,000 cells/cm^2) were cultured in 6 well culture plates for 24 h under normoxic (air) or hypoxic (1% O2) conditions. Incubation with a fluorescent anti CA IX Ab (R&D systems) was performed in one well as a positive control followed by incubation for 1 h at 37° C. Carbonic anhydrase agents A5 and A3 (1 μM) or nonbinding control agent D3 were added to individual wells followed by incubation for 30 min. Cells were rinsed three times with PBS then scraped with 2 mL, transferred to 5 mL tubes and then spun for 10 min at 1000 rpm to discard the PBS. The cells were then re-suspend the cells in 400 μL PBS and analyzed by fluorescence microscopy and flow cytometry. For fluorescence microscopy, nuclei were co-stained with DAPI. For the competition study, cells were incubated with acetazolamide (Az) (100 μM) for 2 hour before incubation with agents.
A general note: Flow cytometry measures light scatter and fluorescence of single cells or particles in a stream.

A short description of data set [3]: Biodistribution of i.v. administered compound in HeLa tumor bearing mice. The format is in vivo. The note with it: 2 nmoles i.v., 24 hr, excised tissues, reflectance mode. As for the experimental part: Female NU/NU mice 6-8 weeks old (Charles River Laboratory, Wilmington, MA) were injected subcutaneously (s.c.) with HeLa cells (5×10^6) in the first mammary fat pads. Once tumors reached the desired volume (measured with calipers using the formula volume mm^3=(length×width^2)/2), mice were injected i.v. with compound C5 (2 nmoles) or nonbinding control D3. Mice were sacrificed by carbon dioxide asphyxiation 24 hr later and certain tissues removed, rinsed with saline, blotted dry, and the imaged on a VisEn FMT 2500 using the reflectance mode. Regions of interest (ROIs) were drawn around each organ using the FMT Software and the mean fluorescence (reported as counts/energy) determined for each organ and normalized to the mean fluorescence in tumors taken to be 100%.

Sequence of CA XII (O43570 25-354, species assumed): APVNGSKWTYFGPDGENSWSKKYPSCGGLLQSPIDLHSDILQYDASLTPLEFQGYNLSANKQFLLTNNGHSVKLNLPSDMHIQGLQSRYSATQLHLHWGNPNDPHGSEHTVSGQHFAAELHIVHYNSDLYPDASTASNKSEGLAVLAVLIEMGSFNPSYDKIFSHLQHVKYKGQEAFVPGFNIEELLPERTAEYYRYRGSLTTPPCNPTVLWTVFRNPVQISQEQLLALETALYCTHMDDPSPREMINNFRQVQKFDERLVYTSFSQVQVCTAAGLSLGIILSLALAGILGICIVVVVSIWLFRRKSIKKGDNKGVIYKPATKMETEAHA
Sequence of CA XIV (Q9ULX7 16-337, species assumed): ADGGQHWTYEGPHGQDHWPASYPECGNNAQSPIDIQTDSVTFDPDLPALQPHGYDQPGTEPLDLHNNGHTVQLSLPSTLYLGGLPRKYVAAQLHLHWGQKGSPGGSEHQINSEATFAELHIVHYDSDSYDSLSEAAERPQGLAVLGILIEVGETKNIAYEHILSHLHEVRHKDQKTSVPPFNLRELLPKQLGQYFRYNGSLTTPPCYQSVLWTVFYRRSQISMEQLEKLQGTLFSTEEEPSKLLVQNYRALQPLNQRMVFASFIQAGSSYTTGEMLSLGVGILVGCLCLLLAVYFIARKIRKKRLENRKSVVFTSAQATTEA

Regarding `CCN1/C(=C/C=C(/C=C/C2=[N+](CC)c3ccc4c(S(=O)(=O)[O-])cc(S(=O)(=O)O)cc4c3C2(C)C)c2ccc(C(=O)NCc3ccc(S(N)(=O)=O)cc3)cn2)C(C)(C)c2c1ccc1c(S(=O)(=O)O)cc(S(=O)(=O)O)cc21` [Compound B6, 3-ethyl-2-((1E,3Z,5E)-5-(3-ethyl-1,1-dimethyl-6,8-disulfo-1H-benzo[e]indol-2(3H)-ylidene)-3-(5-((4-sulfamoylbenzyl)carbamoyl)pyridin-2-yl)penta-1,3-dien-1-yl)-1,1-dimethyl-8-sulfo-1H-benzo[e]indol-3-ium-6-sulfonate], the Ki (usually a measure of affinity in units of concentration, obtained from inhibition or displacement) at CA II was found to be 502 nM; at CA IX [1] it was 9.9 nM; on CA XII it was 40 nM; at CA XIV, 69 nM.

For `CN(CCCC(=O)NCc1ccc(C(=O)Nc2nnc(S(N)(=O)=O)s2)cc1)S(=O)(=O)c1cccc2c3c(ccc12)[N+](CCCS(=O)(=O)[O-])=C(/C=C/C=C/C=C1/N(CCCS(=O)(=O)O)c2ccc4c(S(=O)(=O)O)cc(S(=O)(=O)O)cc4c2C1(C)C)C3(C)C` [Compound A1, 3-(2-((1E,3E,5E)-5-(1,1-dimethyl-6,8-disulfo-3-(3-sulfopropyl)-1H-benzo[e]indol-2(3H)-ylidene)penta-1,3-dien-1-yl)-1,1-dimethyl-6-(N-methyl-N-(4-oxo-4-((4-((5-sulfamoyl-1,3,4-thiadiazol-2-yl)carbamoyl)benzyl)amino)butyl)sulfamoyl)-1H-benzo[e]indol-3-ium-3-yl)propane-1-sulfonate], the Ki on CA II came to 288 nM; on CA IX [1], 8.4 nM; on CA XII it was 57 nM; at CA XIV it was 77 nM.

With `CC1(C)C(/C=C/C(=C/C=C2/N(CCCS(=O)(=O)O)c3ccc4c(S(=O)(=O)O)cc(S(=O)(=O)O)cc4c3C2(C)C)c2ccc(C(=O)NCCCCCC(=O)NCc3ccccc3)cn2)=[N+](CCCS(=O)(=O)[O-])c2ccc3c(S(=O)(=O)O)cc(S(=O)(=O)O)cc3c21` [Compound D3, 3-(2-((1E,3Z,5E)-3-(5-((6-(benzylamino)-6-oxohexyl)carbamoyl)pyridin-2-yl)-5-(1,1-dimethyl-6,8-disulfo-3-(3-sulfopropyl)-1H-benzo[e]indol-2(3H)-ylidene)penta-1,3-dien-1-yl)-1,1-dimethyl-6,8-disulfo-1H-benzo[e]indol-3-ium-3-yl)propane-1-sulfonate], the inhibition constant (Ki) at CA II, on CA IX [1], at CA XII and at CA XIV was above 100000 nM each time. The “specific binding to carbonic anhydrases” value on CA IX [1] (summary in words of Table 5: CA II, CA IX, CA XII, CA XIV) is listed as “no specific binding is detected”. Also, the “tumor signal by planar reflectance and tomographic imaging” value in the data set on HeLa tumors is “little or no tumor signal”. For the same compound, on CA IX [2], the “binding to hypoxic HeLa cells, flow cytometry (FIG. 3)” value (“binding … (FIG. 3)” for short) is listed as “not”. Besides, at CA IX [2], the “binding to hypoxic and normoxic HeLa cells, fluorescence microscopy (FIG. 2)” value is reported as “doesn't bind to either normoxic or hypoxic cells”. Further, the “tissue fluorescence (biodistribution), normalized to tumors (FIG. 4)” value in data set [3] is recorded as “fluorescence accumulation only in the kidneys”.

For the compound `CC1(C)C(/C=C/C(=C/C=C2/N(CCCS(=O)(=O)O)c3ccc4c(S(=O)(=O)O)cc(S(=O)(=O)O)cc4c3C2(C)C)c2ccc(C(=O)NCCCCCC(=O)NCc3ccc(C(=O)Nc4nnc(S(N)(=O)=O)s4)cc3)cn2)=[N+](CCCS(=O)(=O)[O-])c2ccc3c(S(=O)(=O)O)cc(S(=O)(=O)O)cc3c21` [Compound A3, 3-(2-((1E,3Z,5E)-5-(1,1-dimethyl-6,8-disulfo-3-(3-sulfopropyl)-1H-benzo[e]indol-2(3H)-ylidene)-3-(5-((6-oxo-6-((4-((5-sulfamoyl-1,3,4-thiadiazol-2-yl)carbamoyl)benzyl)amino)hexyl)carbamoyl)pyridin-2-yl)penta-1,3-dien-1-yl)-1,1-dimethyl-6,8-disulfo-1H-benzo[e]indol-3-ium-3-yl)propane-1-sulfonate], the inhibition constant Ki was 9.8 nM at CA II, 7.6 nM at CA IX [1], 36 nM at CA XII and 57 nM on CA XIV. Also, the “binding … (FIG. 3)” value at CA IX [2] is listed as “increased binding”. The “binding to hypoxic and normoxic HeLa cells, fluorescence microscopy (FIG. 2)” value on CA IX [2] is “bound to CA IX receptors on the surface of the hypoxic cells but not normoxic cells”. Moreover, at CA IX [2], the “binding to hypoxic HeLa cells after excess acetazolamide, fluorescence microscopy (FIG. 2)” value is on record as “binding can be blocked”. In addition, the “signal on hypoxic HeLa cells with acetazolamide, flow cytometry (FIG. 3)” value on CA IX [2] is “blocking of the signal”.

Take `CCN1/C(=C/C=C(/C=C/C2=[N+](CC)c3ccc4c(S(=O)(=O)[O-])cc(S(=O)(=O)O)cc4c3C2(C)C)c2ccc(C(=O)NCc3ccc(C(=O)Nc4nnc(S(N)(=O)=O)s4)cc3)cn2)C(C)(C)c2c1ccc1c(S(=O)(=O)O)cc(S(=O)(=O)O)cc21` [Compound A6, 3-ethyl-2-((1E,3Z,5E)-5-(3-ethyl-1,1-dimethyl-6,8-disulfo-1H-benzo[e]indol-2(3H)-ylidene)-3-(5-((4-((5-sulfamoyl-1,3,4-thiadiazol-2-yl)carbamoyl)benzyl)carbamoyl)pyridin-2-yl)penta-1,3-dien-1-yl)-1,1-dimethyl-8-sulfo-1H-benzo[e]indol-3-ium-6-sulfonate]: the Ki on CA II is 27.1 nM; at CA IX [1], 7.7 nM; at CA XII, 40 nM; at CA XIV, 84 nM.

For `CC1(C)C(/C=C/C(=C/C=C2/N(CCCS(=O)(=O)O)c3ccc4c(S(=O)(=O)O)cc(S(=O)(=O)O)cc4c3C2(C)C)c2ccc(C(=O)NCc3ccc(C(=O)Nc4nnc(S(N)(=O)=O)s4)cc3)cn2)=[N+](CCCS(=O)(=O)[O-])c2ccc3c(S(=O)(=O)O)cc(S(=O)(=O)O)cc3c21` [Compound A5, 3-(2-((1E,3Z,5E)-5-(1,1-dimethyl-6,8-disulfo-3-(3-sulfopropyl)-1H-benzo[e]indol-2(3H)-ylidene)-3-(5-((4-((5-sulfamoyl-1,3,4-thiadiazol-2-yl)carbamoyl)benzyl)carbamoyl)pyridin-2-yl)penta-1,3-dien-1-yl)-1,1-dimethyl-6,8-disulfo-1H-benzo[e]indol-3-ium-3-yl)propane-1-sulfonate], the Ki on CA II came to 271 nM. The compound further displayed an inhibition constant Ki on CA IX [1] of 7.9 nM. In addition, the inhibition constant Ki on CA XII amounted to 43 nM. Also, on CA XIV, the affinity, expressed as Ki, was 45 nM. In addition, on CA IX [2], the “binding … (FIG. 3)” value was “increased binding”; the “binding to hypoxic and normoxic HeLa cells, fluorescence microscopy (FIG. 2)” value was “bound to CA IX receptors on the surface of the hypoxic cells but not normoxic cells”; the “binding to hypoxic HeLa cells after excess acetazolamide, fluorescence microscopy (FIG. 2)” value was “binding can be blocked”; the “signal on hypoxic HeLa cells with acetazolamide, flow cytometry (FIG. 3)” value is reported as “blocking of the signal”.
